“Also recorded” adds a separate entry of the source. Where two headings read alike, the source gives them in different places.
How the values were obtained:
[1] = tested on: TBP binding to the TATA box region of the adenovirus major late promoter; assay: Gel mobility shift, TBP binding to adenovirus major late promoter TATA box; parameters: species or system human; conditions: mismatch flanking sequences
Description: (§1) Regions of polyamide protection were determined by analysis of the digestion products on a 6% denaturing polyacrylamide sequencing gel. Storage phosphorimage analysis of the data was used to obtain dissociation constants for the binding reactions (using Kodak Storage Phosphor Screens and a Molecular Dynamics SF PhosphorImager). Recombinant human TBP (rhTBP) was obtained from Promega and was used in footprinting and gel mobility shift experiments as recommended. The reaction mixtures also contained 100 ng of poly dG-poly dC per 10 μL gel shift reaction or 50 μL footprinting reaction. For gel mobility shift assays, 6% polyacrylamide gels (20:1, acrylamide to bisacrylamide) contained 44 mM Tris-borate, pH 8.3, 1 mM EDTA, […] and 0.02% (v/v) NP-40. The same buffer was used for electrophoresis of 1 mm thick gels at 15 volts/cm for 2 hours at 4° C.

[2] = tested on: 5′-TCGTCGA-3′ (reversed orientation match site); format: binding
[3] = tested on: 5′-AGTGAA-3′ within the IE86 binding site; parameters: species or system human cytomegalovirus; conditions: 1-200 nM
Text: (§2) These compounds together with purified recombinant IE86 protein were used in DNase I footprint experiments with a singly end-labeled restriction fragment derived from the CMV major immediate early promoter. […] A singly-end labeled restriction fragment was used in DNase I footprinting reactions. […] Lanes 1 and 18 represent a G+A sequencing ladder. […] The location of the TATA box and the start of transcription are indicated.

[4] = tested on: IE86 binding to the CMV MIEP; assay: DNase I footprinting, IE86 binding to the crs element; parameters: species or system human cytomegalovirus; conditions: approximately 250 nM IE86
Text: as §2

HIV-1 strain WEAU1.6 = assay: HIV-1 replication in human PBMC, p24 ELISA; format: cell-based; conditions: mismatch controls, alone or in combination
Description: PBMC were infected with the T cell-tropic HIV-1 strain WEAU1.6, or the macrophage-tropic strain SF162. […] Polyamides were added to the culture medium and the levels of HIV-1 p24 viral capsid protein in the culture media were determined on subsequent days using a standard ELISA assay.
Human PBMC were separated from whole blood collected from normal adult volunteers by density gradient centrifugation as described. […] Human PBMC were activated with 2 μg/mL PHA and 20 units/mL of IL-2 for 2-3 days prior to HIV-1 infection. […] Free virus was removed by washing the cells in medium, and polyamides added to the culture. […] Virus replication in culture was measured by HIV-1 p24 viral capsid antigen ELISA (DuPont Medical Products, Boston, Mass.).
PBMC cultures were infected with the primary HIV-1 isolate WEAU 1.6 (kindly provided by G. Shaw), and virus replication measured by release of p24 capsid antigen into the medium that was detected by antibody-capture ELISA (Dupont). Each experiment involved a separate PBMC donor.

[5] = tested on: 5′-TGCTGCA-3′ (the HIV-1 target sequence); format: binding
[6] = tested on: CMV major immediate early promoter; assay: CMV MIEP transcription in vitro (control template); format: biochemical, human cytomegalovirus; conditions: H9/HeLa extract system
Description: The effects of polyamides 1 and 2 on HIV-1 transcription were tested in an in vitro transcription assay with a HeLa cell nuclear extract (FIG. 21A). The effects of the polyamides on basal transcription by RNA polymerase II was monitored with a nuclear extract prepared from HeLa cells (J. D. Dignam, P. L. Martin, B. S. Shastry, R. G. Roeder, Describe eukaryotic gene transcription with purified components Meth. Enzymol. 101, 582 (1983)). The human lymphloid cell line H9 (ATCC HTB 176) was grown in suspension culture in RPMI medium (Bio Whittaker) supplemented with 10% fetal calf serum (Tissue Culture Biological). Whole cell extracts of H9 cells in log phase growth were prepared by hypotonic lysis and contained 20 mg/ml protein, as determined by the Bradford reaction. Run-off RNA transcripts of ˜300 bases (CMV MIEP linked to a guanine-less cassette, plasmid pEIB-GL and ˜500 bases (pHIV LTR-CAT) where obtained with EcoRI-digested plasmid DNA (100 ng per 25 μL reaction).
Polyamide-DNA complexes were allowed to form at ambient temperature for 30 min prior to addition of the nuclear extract. […] RNA was purified by extraction with RNAzol (TelTest, Friendswood, Tex.) and analyzed by electrophoresis on a denaturing (8.3 M urea) 6% polyacrylamide gel. […]

[7] = tested on: 5′-AGTACT-3′ site adjacent to the LEF-1 binding site; assay: DNase footprint titration on HIV-1 enhancer/promoter fragment; conditions: mismatch polyamide
Description: White, S., Baird, E. E. & Dervan, P. B. describes the pairing rules for recognition in the minor groove of DNA by pyrrole-imidazole polyamides. […] Labeled DNA was incubated with polyamide (45 minutes) and digested with DNase I under single-hit conditions.
as §1

[8] = tested on: HIV-1 enhancer/promoter restriction fragment; assay: DNase footprint titration on HIV-1 enhancer/promoter fragment, other sites; format: binding; conditions: mismatch polyamide, 1-60 nM
Text: White, S., Baird, E. E. & Dervan, P. B. describes the pairing rules for recognition in the minor groove of DNA by pyrrole-imidazole polyamides. Chem. & Biol. 4, 569-578 (1997); Swalley, S. E., Baird, E. E. & Dervan, P. B. describe the sequence specificity of the β/β pairing Chem Eur. J. 3, 1600 (1997). […] For DNase I footprinting a 400-bp restriction fragment containing the HIV-1 enhancer and promoter regions was isolated from pHIV LTR-CAT plasmid DNA (obtained from Dr. K. A. Jones of The Salk Institute, La Jolla, Calif.) (P. L. Sheridan et al., describe the sequence composition of the plasmid pHIV LTR-CAT Genes Dev. 9, 2090 (1995)). Labeled DNA was incubated with polyamide (45 minutes) and digested with DNase I under single-hit conditions.
Regions of polyamide protection were determined by analysis of the digestion products on a 6% denaturing polyacrylamide sequencing gel. Storage phosphorimage analysis of the data was used to obtain dissociation constants for the binding reactions (using Kodak Storage Phosphor Screens and a Molecular Dynamics SF PhosphorImager). Recombinant human TBP (rhTBP) was obtained from Promega and was used in footprinting and gel mobility shift experiments as recommended. The reaction mixtures also contained 100 ng of poly dG-poly dC per 10 μL gel shift reaction or 50 μL footprinting reaction. […]

## CN(C)CCCNC(=O)CCNC(=O)c1cc(NC(=O)c2nc(NC(=O)CCNC(=O)c3cc(NC(=O)c4nc(NC(=O)CCCNC(=O)c5cc(NC(=O)c6nc(NC(=O)CCNC(=O)c7cc(NC(=O)c8nccn8C)cn7C)cn6C)cn5C)cn4C)cn3C)cn2C)cn1C [polyamide 4, ImPy-β-ImPy-γ-ImPy-β-ImPy-β-Dp]
[1]
  inhibition of TBP binding to adenovirus major late promoter TATA box: did not inhibit
[2]
  fold lower affinity for 5′-TCGTCGA-3′ than for 5′-TGCTGCA-3′: ~10 fold
[3]
  footprint on the CMV fragment: did not give a footprint
[4]
  interference with IE86 binding: did not interfere
HIV-1 strain WEAU1.6
  effect on the level of virus in the medium: had no effect
[5]; Buffer A, 24° C.
  Equilibrium association constants, 5′-aTGCTGCA-3′: 1.5 × 10^10 (0.3) M^a
[5]; Buffer A, 37° C.
  Equilibrium association constants, 5′-aTGCTGCA-3′: 8.4 × 10^9 (2.3) M^a
[5]; Buffer B (140 mM KCl, 10 mM NaCl, 1 mM MgCl2, 1 mM spermine pH 7.2), 24° C.
  Equilibrium association constants, 5′-aTGCTGCA-3′: 1.9 × 10^10 (0.6) M^a
[5]; Buffer B, 37° C.
  Equilibrium association constants, 5′-aTGCTGCA-3′: 1.1 × 10^10 (0.2) M^a
[5]; polyamide 4 vs 8
  fold higher affinity relative to unlinked analog: ~6000 fold
[6]
  inhibition of CMV transcription: fails to inhibit
[7]
  fold reduced affinity for the 5′-AGTACT-3′ sequence: > 100 fold
[8]
  binding to the HIV-1 enhancer/promoter fragment: failed to detect any high affinity sites; also recorded: does not bind

Reference: patent US6660255B1, “Inhibition of gene transcription by polyamide DNA-binding ligands” (California Institute of Technology, priority 1997, dated 2003)
